{
  "source": "patent US20230190924A1",
  "about": "“ANTIGEN OF ALLERGY AND EPITOPE THEREOF” (HOYU CO., LTD., priority 2017, published 2023)",
  "data": [
    {"system": "IgE antibodies from patients", "experiment": "Epitope mapping (2) overlapping (10-amino-acid peptides) and (3) alanine scanning on peptide arrays", "format": "binding, human", "details": "overlapping peptides with flanking sequence", "description": "(§1) On the basis of the sequences (SEQ ID NOs: 272-295 for vitellogenin-2 precursor, SEQ ID NOs: 296-303 for vitellogenin-3, SEQ ID NOs: 304-311 for apolipoprotein B precursor, and SEQ ID NOs: 312-318 for vitellogenin-1 or lipovitellin-1) of the peptides bound to an IgE antibody in serum in a patient-specific manner as described above in (A), a library of overlapping peptide fragments (length: 10 amino acids) was prepared using the sequences of the peptides and sequences in which sequences were added so as to flank each peptide in the amino acid sequences of allergen components (amino acid sequences of SEQ ID NO: 59, 106 or 262 for vitellogenin-2 precursor, SEQ ID NO: 2, 13 or 47 for vitellogenin-3, SEQ ID NO: 152, 237 or 251 for apolipoprotein B, and SEQ ID NO: 18 for vitellogenin-1 or lipovitellin-1) comprising the sequences of the peptide to carry out epitope mapping.\n(§2) The peptides to be synthesized were shifted by one amino acid.\n(§3) The library was prepared by the same procedure as described above in (A), and the presence or absence of binding of an IgE antibody present in the serum of a patient and a non-egg-allergic subject to each peptide fragment was measured by the same technique as described above. Amino acids at positions where the binding activity against IgE antibodies from patients were lost or decreased in the peptides shifted by one amino acid while binding activity against IgE antibodies from non-egg-allergic subjects arose were confirmed as amino acids adversely affecting the specificity of binding to IgE antibodies.\n(§4) Chemiluminescence intensity in images obtained by measurement was converted into a numeric value in the same manner as in (A) using ImageQuant TL (GE Healthcare). Numeric values determined from images obtained as a result of using only anti-human IgE antibody-HRP antibody without carrying out the procedures (2) and (3) described above in the subsection titled (3) Spotting of cellulose-bound peptide solution were […] numeric values determined from images obtained from results about the serum of 6 patients. It was determined that a peptide having the resulting value larger than 0 had no binding activity against IgE antibodies when having less than 20% of values obtained using the sequences (amino acid sequences of SEQ ID NO: 59, 106 or 262 for vitellogenin-2, SEQ ID NO: 2, 13 or 47 for vitellogenin-3, SEQ ID NO: 152, 237 or 251 for apolipoprotein B, and SEQ ID NO: 18 for vitellogenin-1 or lipovitellin-1) serving as the basis of overlapping, had binding activity, albeit poor, against IgE antibodies when having 20% or more and less than 50% thereof, had binding activity, albeit somewhat poor, against IgE antibodies when having 50% or more and less than 70% thereof, had almost equivalent binding activity against IgE antibodies when having 70% or more and less than 90% thereof, and had equivalent or good binding activity against IgE antibodies and thus had remaining binding activity against IgE antibodies when having 90% or more thereof.\n(§5) From the amino acid sequences identified above in (A), a library of peptide fragments in which N-terminal amino acids were substituted one by one by alanine according to a technique called alanine scanning (Non Patent Literature 1) was prepared by the same technique as described above. The presence or absence of binding of an IgE antibody present in the serum of a patient and a non-egg-allergic subject to each peptide fragment was measured by the same technique as described above. Amino acids at positions where the binding activity against IgE antibodies from patients were lost or decreased by the substitution by alanine while binding activity against IgE antibodies from non-egg-allergic subjects arose were confirmed as amino acids important for exertion of original antigenicity, or amino acids influencing exertion of original antigenicity.", "values": [
      {"substance": "SEQ ID NO: 319: sequence comprising a region amino-terminally adjacent to epitope 1 (LKVRSPQVEE; epitope)", "binding to IgE antibodies from patients, sequence comprising a region amino-terminally adjacent to the epitope": "binding to IgE antibodies from patients"},
      {"substance": "SEQ ID NO: 324: sequence comprising a region amino-terminally adjacent to epitope 2 (MFQMTIKKS; epitope)", "binding to IgE antibodies from patients, sequence comprising a region amino-terminally adjacent to the epitope": "binding to IgE antibodies from patients"},
      {"substance": "SEQ ID NO: 336: sequence comprising a region carboxy-terminally adjacent to epitope 3 (ALKCIGNMGE; epitope)", "binding to IgE antibodies from patients, sequence comprising a region carboxy-terminally adjacent to the epitope": "binding to IgE antibodies from patients"},
      {"substance": "SEQ ID NO: 342: sequence comprising a region amino-terminally adjacent to epitope 4 (DAITALKKIA; epitope)", "binding to IgE antibodies from patients, sequence comprising a region amino-terminally adjacent to the epitope": "binding to IgE antibodies from patients"},
      {"substance": "SEQ ID NO: 351: sequence comprising a region carboxy-terminally adjacent to epitope 4 (PKTVQGYL; epitope)", "binding to IgE antibodies from patients, sequence comprising a region carboxy-terminally adjacent to the epitope": "binding to IgE antibodies from patients"},
      {"substance": "SEQ ID NO: 353: sequence comprising a region amino-terminally adjacent to epitope 5 (CNIALKLLSP; epitope)", "binding to IgE antibodies from patients, sequence comprising a region amino-terminally adjacent to the epitope": "binding to IgE antibodies from patients"},
      {"substance": "SEQ ID NO: 357: sequence comprising a region carboxy-terminally adjacent to epitope 5 (KLDSMSYRY; epitope)", "binding to IgE antibodies from patients, sequence comprising a region carboxy-terminally adjacent to the epitope": "binding to IgE antibodies from patients"},
      {"substance": "SEQ ID NO: 359: sequence comprising a region amino-terminally adjacent to epitope 6 (VVNSPRTMF; epitiope)", "binding to IgE antibodies from patients, sequence comprising a region amino-terminally adjacent to the epitope": "binding to IgE antibodies from patients"},
      {"substance": "SEQ ID NO: 360: sequence comprising a region carboxy-terminally adjacent to epitope 6 (PSAIISKLMA; epitope)", "binding to IgE antibodies from patients, sequence comprising a region carboxy-terminally adjacent to the epitope": "binding to IgE antibodies from patients"},
      {"substance": "SEQ ID NO: 363: sequence comprising a region amino-terminally adjacent to epitope 6 (VVNSPRT; epitope)", "binding to IgE antibodies from patients, sequence comprising a region amino-terminally adjacent to the epitope": "binding to IgE antibodies from patients"},
      {"substance": "SEQ ID NO: 375: sequence comprising a region carboxy-terminally adjacent to epitope 7 (SAGSVADLVE; epitope)", "binding to IgE antibodies from patients, sequence comprising a region carboxy-terminally adjacent to the epitope": "binding to IgE antibodies from patients"},
      {"substance": "SEQ ID NO: 377: sequence comprising a region amino-terminally adjacent to epitope 8 (IKELGKALQG; epitope)", "binding to IgE antibodies from patients, sequence comprising a region amino-terminally adjacent to the epitope": "binding to IgE antibodies from patients"},
      {"substance": "SEQ ID NO: 380: sequence comprising a region carboxy-terminally adjacent to epitope 8 (ELPTETPLVS; epitope)", "binding to IgE antibodies from patients, sequence comprising a region carboxy-terminally adjacent to the epitope": "binding to IgE antibodies from patients"},
      {"substance": "SEQ ID NO: 381: sequence comprising a region carboxy-terminally adjacent to epitope 8 (LPTETPLVS; epitope)", "binding to IgE antibodies from patients, sequence comprising a region carboxy-terminally adjacent to the epitope": "binding to IgE antibodies from patients"},
      {"substance": "SEQ ID NO: 384: sequence comprising a region amino-terminally adjacent to epitope 8 (IKELGKALQG; epitope)", "binding to IgE antibodies from patients, sequence comprising a region amino-terminally adjacent to the epitope": "binding to IgE antibodies from patients"}
    ]},
    {"system": "IgE antibodies from patients", "experiment": "Epitope mapping (2) overlapping (10-amino-acid peptides) and (3) alanine scanning on peptide arrays", "format": "binding, human", "details": "procedures (B) overlapping and (C) alanine scanning", "description": "as §1, §2, §3, §4, §5", "values": [
      {"substance": "ELL (epitope) [SEQ ID NO: 637]", "region within the epitope important for binding to IgE antibodies from patients": "important for binding"},
      {"substance": "SEQ ID NO: 323: region in epitope 1 (VEEYNG; epitope)", "region within the epitope important for binding to IgE antibodies from patients": "important for binding"},
      {"substance": "SEQ ID NO: 327: region in epitope 2 (QMTIKKSQNV; epitope)", "region within the epitope important for binding to IgE antibodies from patients": "important for binding"},
      {"substance": "SEQ ID NO: 330: region in epitope 3 (RGREDKMK; epitope)", "region within the epitope important for binding to IgE antibodies from patients": "important for binding"},
      {"substance": "SEQ ID NO: 331: region in epitope 3 (KMKLALKCIG; epitope)", "region within the epitope important for binding to IgE antibodies from patients": "important for binding"},
      {"substance": "SEQ ID NO: 333: region in epitope 3 (REDKMKLAL; epitope)", "region within the epitope important for binding to IgE antibodies from patients": "important for binding"},
      {"substance": "SEQ ID NO: 335: region in epitope 3 (KMKLALKCIG; epitope)", "region within the epitope important for binding to IgE antibodies from patients": "important for binding"},
      {"substance": "SEQ ID NO: 339: region in epitope 4 (ALKKIAWKDP; epitope)", "region within the epitope important for binding to IgE antibodies from patients": "important for binding"},
      {"substance": "SEQ ID NO: 343: region in epitope 4 (LKKIAWKDP; epitope)", "region within the epitope important for binding to IgE antibodies from patients": "important for binding"},
      {"substance": "SEQ ID NO: 344: region in epitope 4 (KIAWKDPKTV; epitope)", "region within the epitope important for binding to IgE antibodies from patients": "important for binding"},
      {"substance": "SEQ ID NO: 346: region in epitope 4 (AWKDPKTVQG; epitope)", "region within the epitope important for binding to IgE antibodies from patients": "important for binding"},
      {"substance": "SEQ ID NO: 347: region in epitope 4 (LKKIA; epitope)", "region within the epitope important for binding to IgE antibodies from patients": "important for binding"},
      {"substance": "SEQ ID NO: 350: region in epitope 4 (AWKDPKTV; epitope)", "region within the epitope important for binding to IgE antibodies from patients": "important for binding"},
      {"substance": "SEQ ID NO: 355: region in epitope 5 (LLSPKLDS; epitope)", "region within the epitope important for binding to IgE antibodies from patients": "important for binding"},
      {"substance": "SEQ ID NO: 356: region in epitope 5 (KLDS; epitope)", "region within the epitope important for binding to IgE antibodies from patients": "important for binding"},
      {"substance": "SEQ ID NO: 366: region in epitope 6 (SPRTMFPSAI; epitope)", "region within the epitope important for binding to IgE antibodies from patients": "important for binding"},
      {"substance": "SEQ ID NO: 369: region in epitope 6 (TMFPSAIISK; epitope)", "region within the epitope important for binding to IgE antibodies from patients": "important for binding"},
      {"substance": "SEQ ID NO: 374: region in epitope 7 (ISKLMANSA; epitope)", "region within the epitope important for binding to IgE antibodies from patients": "important for binding"},
      {"substance": "SEQ ID NO: 379: region in epitope 8 (KALQGWKELP; epitope)", "region within the epitope important for binding to IgE antibodies from patients": "important for binding"}
    ]}
  ]
}
